Reference: the supplement of paper PMC4862054

Tests used:
Settings in all cases: 72 h
HDQ-P1 [1] = system: HDQ-P1
Experimental: (§1)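 Drug sensitivity and resistance testing (DSRT) of breast cancer cell lines in 384-well plates, 5 concentrations in 10-fold dilutions over a compound-specific 10,000-fold range. After 72 h, cytotoxicity was read by CellTox Green fluorescence and viability by CellTiter-Glo luminescence (multiplexed), normalised to DMSO and benzethonium chloride controls. EC50 is the inflection point of the fitted dose-response curve (bottom asymptote free, so it can be relative for partial curves) and is censored at the highest tested concentration. Rows with DSS 0 (no meaningful response) were excluded.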

BT-474 = system: BT-474
How it was run: (§2)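 To measure viability, fluorescence at 560/590 nm was read after 2.5 µl CellTiter-Blue had been added for 2 h at 37 °C. Cells from breast cancer lines had been seeded in 20 µl suspension onto 384-well plates pre-loaded with compound dissolved in 5 µl medium and kept for 72 h. EC50 comes from a fitted percent-inhibition dose-response curve censored at the highest concentration, after per-plate normalisation to vehicle and a positive kill control, Z'-factor checks, and removal of rows with zero drug sensitivity score.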

HDQ-P1 [2] = system: HDQ-P1; remark: listed apart in the source
How it was run: as §2

MFM-223 = system: MFM-223
Experimental: as §1

DU-4475 = system: DU-4475
Experimental: as §1

CAL-120 = system: CAL-120
Experimental: as §1

MCF-10A [3] = system: MCF-10A
Experimental: as §1

CAL-148 [4] = system: CAL-148
Experimental: as §1

MDA-MB-231 = system: MDA-MB-231
Experimental: as §1

MDA-MB-453 = system: MDA-MB-453
Experimental: as §1

HCC1937 = system: HCC1937
Experimental: as §1

MCF-10A [5] = system: MCF-10A; remark: listed apart in the source
How it was run: (§3)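 A 20 µl suspension of breast cancer cells was placed in 384-well plates that already contained compound at 5 concentrations in 10-fold steps across a compound-specific 10,000-fold range, and the plates were left for 72 h. CellTox Green fluorescence at 485/520 nm gave cell death, and CellTiter-Glo luminescence, read after 10 min at room temperature, gave viability. Each plate was normalised to 0.1 % DMSO and a positive kill control. EC50 was fitted from the curves and censored at the top concentration.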

CAL-148 [6] = system: CAL-148; remark: listed apart in the source
How it was run: as §3

HCC1143 [7] = system: HCC1143
How it was run: as §3

MDA-MB-436 = system: MDA-MB-436
Experimental: as §1

HCC1599 = system: HCC1599
Experimental: as §1

HCC1143 [8] = system: HCC1143; remark: listed apart in the source
Experimental: as §1

Compound | EC50, CellTox Green (HDQ-P1 [1]) [µM] | EC50, CellTiter-Blue viability (BT-474) [µM] | EC50, CellTiter-Blue viability (HDQ-P1 [2]) [µM] | EC50, CellTox Green (MFM-223) [µM] | EC50, CellTox Green (DU-4475) [µM] | EC50, CellTox Green (CAL-120) [µM] | EC50, CellTox Green (MCF-10A [3]) [µM] | EC50, CellTox Green (CAL-148 [4]) [µM] | EC50, CellTox Green (MDA-MB-231) [µM] | EC50, CellTox Green (MDA-MB-453) [µM] | EC50, CellTox Green (HCC1937) [µM] | EC50, CellTiter-Glo (MCF-10A [5]) [µM] | EC50, CellTiter-Glo (CAL-148 [6]) [µM] | EC50, CellTiter-Glo (HCC1143 [7]) [µM] | EC50, CellTox Green (MDA-MB-436) [µM] | EC50, CellTox Green (HCC1599) [µM] | EC50, CellTox Green (HCC1143 [8]) [µM]
CO[C@@]12[C@H](COC(N)=O)C3=C(C(=O)C(C)=C(N)C3=O)N1C[C@@H]1N[C@@H]12 [Mitomycin C] | > 10 | 2.5 | 8.56 | – | – | – | – | – | – | – | – | – | – | – | – | – | –
Cc1cc(Nc2nc(N[C@@H](C)c3ncc(F)cn3)ncc2Cl)[nH]n1 [AZD1480] | – | – | – | 0.872 | – | – | – | – | – | – | – | – | – | – | – | – | –
CC(C)(C)c1nc(-c2cccc(NS(=O)(=O)c3c(F)cccc3F)c2F)c(-c2ccnc(N)n2)s1 [Dabrafenib] | – | – | – | – | 0.224 | – | – | – | – | – | – | – | – | – | – | – | –
CCNC(=O)c1noc(-c2cc(C(C)C)c(O)cc2O)c1-c1ccc(CN2CCOCC2)cc1 [NVP-AUY922] | 0.033 | 0.0234 | 0.00972 | – | 0.0252 | > 1 | 0.00761 | 0.0295 | 0.00941 | > 1 | 0.987 | 0.0276 | 0.0414 | 0.0387 | – | – | –
CCN(CC)CCCC(C)Nc1ccnc2cc(Cl)ccc12 (centres undefined) [Chloroquine] | 34.6 | – | – | 15.3 | 96.8 | 38.4 | 20.4 | 5.12 | 10.4 | 13.4 | 23.9 | 17.3 | 12.4 | 43.2 | 5.41 | 17.9 | –
O=[N+]([O-])c1ccc2c(c1)S(=O)(=O)C=C2 [Stattic] | 34 | – | – | 1.23 | – | 34.3 | 1.19 | 3.87 | 5.15 | 27.4 | 0.349 | 17.4 | 4.64 | 13.2 | 14.4 | – | 13.8
O=C(CCCCCCC(=O)Nc1ccccc1)NO [Vorinostat] | – | 2.29 | – | – | – | 6.84 | – | 8.26 | 1.72 | – | – | 8.98 | 2.14 | 4.59 | – | – | 6.13
CC1(COc2ccc3c(c2)ncn3-c2ccc3cccc(N4CCC(N)CC4)c3n2)COC1 [Crenolanib] | 1.04 | – | – | – | > 10 | – | 3.37 | 2.53 | 2.71 | – | – | 4.78 | 4.35 | – | 0.0293 | – | –
CC(=O)[C@]1(O)Cc2c(O)c3c(c(O)c2[C@@H](O[C@H]2C[C@H](N)[C@H](O)[C@H](C)O2)C1)C(=O)c1ccccc1C3=O [Idarubicin] | – | 0.116 | 0.277 | 0.806 | – | – | 0.642 | 0.0319 | – | – | – | 0.455 | 0.125 | 0.531 | – | – | –
